Assay results taken from ChEMBL document CHEMBL1129009, “New aza-thioxanthones: Synthesis and cytotoxicity” (Bioorg Med Chem Lett, 1996).

Key:
Format in all cases: functional, cell-based
Conditions in all cases: Homo sapiens
MCF7 = experiment: Compound was evaluated for cytotoxicity against breast cancer MCF-7 cell lines
SK-OV-3 = experiment: Compound was evaluated for cytotoxicity against ovarian carcinoma […] cell line
SW-620 = experiment: Compound was evaluated for cytotoxicity against colon SW-620 cell line
HOP-92 = experiment: Compound was evaluated for cytotoxicity against non small lung cancer HOP-92 cell line
MOLT-4 = experiment: Compound was evaluated for cytotoxicity against leukemic MOLT-4 cell lines

Row | Structure (SMILES) | IC50 (MCF7) [µM] | IC50 (SK-OV-3) [µM] | IC50 (SW-620) [µM] | IC50 (HOP-92) [µM] | IC50 (MOLT-4) [µM]
1 | O=C(CCN1CCOCC1)Nc1ccc2sc3ccccc3c(=O)c2n1 | 49.8 | 47.6 | 27.3 | 45.3 | –
2 | CCN(CC)CCC(=O)Nc1ccc2sc3ccccc3c(=O)c2n1 | 13.3 | 20.5 | 12 | – | 7.77
3 | O=C(CN1CCCCC1)Nc1ccc2sc3ccccc3c(=O)c2n1 | 19.4 | 21.4 | 5.42 | 15.1 | 2.69
4 | O=C(CCN1CCCCC1)Nc1ccc2sc3ccccc3c(=O)c2n1 | 15.9 | 23.2 | 8.31 | 0.41 | 2.56
5 | O=C(CN1CCCC1)Nc1ccc2sc3ccccc3c(=O)c2n1 | 27.2 | 20.6 | 4.96 | 27.3 | 1.91
6 | O=C(CCN1CCCC1)Nc1ccc2sc3ccccc3c(=O)c2n1 | 17 | 5.23 | 15.5 | 18.1 | 3.42
